# Several values for one entry are separate records, joined by “and”; a condition that tells them apart may be missing. Equal entries are not always repeated.
# Experiments:
# [1] = tested on: octopamine-sensitive adenylate cyclase (firefly lantern octopamine receptor); experiment: Octopamine-sensitive adenylate cyclase activation, firefly light organ broken cell preparation; assay type: biochemical, firefly (Photinus pyralis); conditions: for Ka ratio / Vmax: FIG. 1, formamidines; for Vmax: % of octopamine
# [2] = tested on: adenylate cyclase in nerve cord of tobacco hornworm; experiment: Octopamine agonist activity, adenylate cyclase in broken cell preparations of insect nerve cord; assay type: biochemical, tobacco hornworm (Manducca sexta); conditions: FIG. 3
# Procedure: In addition to the above method employing the firefly light organ, octopamine-sensitive adenylate cyclase can also be measured in tissue preparations from the nerve cord of any desired particular insect pest, using a modification of the method appearing in Nathanson et al. (Science 180:308-310 (1973)) herein incorporated by reference. […]. […] Otherwise, the procedure is identical to that described above.
# […]. The tissue is homogenized (usually 15 mg/ml) as above in 6 mM Tris maleate, pH 7.4. […]. This is done to cancel out the effects of dopamine and serotonin receptors which are usually present in nerve cord. It assures that the compound (B) tested is affecting only octopamine receptors (known to be present in all insect nerve cords).
# [3] = tested on: tobacco hornworms (Manducca sexta); experiment: In vivo leaf test (feeding on sprayed tomato leaves); conditions: for effect of adding IBMX on antifeeding / pesticidal activity of the compound: IBMX 0.1%, FIGS. 9, 10, 17, Tables 4, 7, 8, FIG. 9 at 72 hours; for antifeeding activity of the compound by itself: FIGS. 10, 13, 17, Table 8; for activity as synergist of DDCDM: FIGS. 14, 15, 16, 8-phenyl-theophylline 0.1% with 0.1% DDCDM compared with 0.1% IBMX
# [4] = tested on: phosphodiesterase enzyme of hornworm nerve cord; experiment: PDE inhibitory activity, hornworm nerve tissue; assay type: biochemical, tobacco hornworm (Manducca sexta); conditions: FIG. 8
# Source text: (§1) The ability of any compound (A) to inhibit phosphodiesterase (PDE) activity in broken cell preparations of firefly lantern or in pest tissues can be determined either (1) by measuring the decrease in rate of hydrolysis of an added amount of cyclic AMP by PDE (see Methods Section of Nathanson et al., Mol. Pharmacol. 12:390-398 (1975)), or (2) by measuring the rate of accumulation of one of the breakdown products of cyclic AMP, such as 5'-AMP or adenosine (see method of Filburn et al., Anal. Biochem. 52:505-516 (1973)). Both of these are herein incorporated by reference.
# (§2) In this assay (modified slightly from Filburn and Karn (Analyt. Biochem. 52: 505-516 (1973)), the rate of hydrolysis of labeled cyclic AMP to 5'-AMP by PDE is measured by converting the breakdown product (5'-AMP) to adenosine, which can be separated and measured by alumina chromatography. Specifically, tissue from either the firefly lantern or pest is homogenized (10-20 mg/ml) in 6 mM Tris-maleate buffer, pH 7.4. The hydrolysis reaction is run in test tubes containing (in 100 microliters): 80 mM Tris maleate, pH 7.4; 6 mM MgSO4; 10 pmoles tritiated cyclic AMP (2×10^4 to 2×10^5 cpm, depending upon the activity of the enzyme); 20 microliters of tissue homogenate; and various concentrations of the compound to be tested. In those cases in which the compound is insoluble in aqueous solution at pH 7.4, pH can be varied between pH 6.5 and 9.0 for optimization of solubility. In addition, the test compound can be initially solubilized in either 100% methanol or DMSO and diluted to a final concentration of 10% methanol or DMSO in the assay (in which case solvent controls are run in parallel).
# The reaction is started by the addition of homogenate, run for 4 min at 37° C., and terminated by boiling for 90 sec. […] The void volume is discarded and the column is then eluted with 2 ml of 0.1N ammonium acetate, pH 4.0, the eluent collected and counted by liquid scintillation spectrometry. […]
# Manducca eggs = experiment: Ovacidal test (eggs dipped in drug solutions); assay type: in vivo, Manducca sexta
# Procedure: In some cases, test agents were tested for ovacidal activity by dipping groups of 10-50 Manducca eggs in drug solutions for 60 seconds and then determining the percentage of eggs which produced viable larvae. A compound or synergist with active ovacidal activity was one which decreased the percentage of eggs hatched, relative to control.
# [5] = tested on: Firefly phosphodiesterase enzyme; experiment: PDE inhibitory activity, firefly lantern; assay type: biochemical, firefly (Photinus pyralis)
# Source text: as §1
# Generally, any compound capable of maximally inhibiting PDE activity by at least 50% (Vmax -inhibition) and preferably by at least 80% is preferred. Also, in terms of the concentration of the compound required for such inhibition, this can be quantitated by determining the IC 50-inhibition, i.e., the concentration of the compound required to cause 50% of the maximal inhibitioncaused by the compound at any concentration.
# as §2
# The reaction is started by the addition of homogenate, run for 4 min at 37° C., and terminated by boiling for 90 sec. The 5'AMP formed is then converted to adenosine by the addition of 20 microliters of an aqueous solution of 0.5 Units/ml of 5'-nucleotidase (Sigma, Grade IV), vortexed, and incubated for 30 minutes at 37° C. The second reaction is stopped by addition of 0.4 ml of 0.1N ammonium acetate, pH 4.0. The entire sample is then applied to a 0.5×8 cm column containing neutral alumina prewashed with 20 ml of 0.1N ammonium acetate, pH 4.0. The void volume is discarded and the column is then eluted with 2 ml of 0.1N ammonium acetate, pH 4.0, the eluent collected and counted by liquid scintillation spectrometry. Activity is cpms above that due to a blank which was initially incubated for 0 seconds in the first reaction.
# [6] = tested on: adenylate cyclase in firefly lantern; experiment: Direct activation of adenylate cyclase in firefly lantern; assay type: biochemical, firefly (Photinus pyralis); conditions: FIG. 4
# Procedure: The second type of pest controlling compounds (B2) useable in the present compositions are direct stimulators of the pest enzyme adenylate cyclase. These compounds bypass the receptor, and interact with one or another of the associated catalytic or regulatory subunits of adenylate cyclase, thereby stimulating the formation of cyclic AMP. Suitable compounds can be determined from assay of pest adenylate cyclase as described above.
# Adenylate cyclase activation by test compounds was measured in test tubes containing (in 0.3 ml) 80 mM Tris-maleate, pH 7.4; 10 mM theophylline; 8 mM MgCl2; 0.1 mM GTP; 0.5 mM ethylene glycol bis (beta-aminoethyl ether)-N,N,N'N'-tetraacetic acid; 2 mM ATP; 0.06 ml of P2 fraction; and the various compounds to be tested. Prior experiments had determined that, under these conditions, octopamine-sensitive adenylate cyclase activity is optimized. Test compounds were initially solubilized (prior to aqueous dilution) in water or (if soluble) in 50% (v/v) methanol. If insoluble in 50% methanol, compounds may be dissolved initially in 100% methanol, or 100% dimethylsulfoxide, or 100% polyethylene glycol. […] Cyclic AMP in the supernatant was measured by protein-binding assay, according to the method of Brown et al., Adv. […] Protein concentration was determined by the method of Lowry et al., Journal of Biological Chemistry 193:265-275 (1951). […]
# [7] = tested on: adenylate cyclase, nerve cord of tobacco hornworm larvae; experiment: Direct activation of adenylate cyclase, broken cell preparations of hornworm nerve cord; conditions: FIG. 5
# [8] = agonist 1 gm/100 ml, No PDE Inhibitor
# [9] = agonist 10^-1 gm/100 ml, No PDE Inhibitor
# [10] = agonist 10^-2 gm/100 ml, No PDE Inhibitor
# [11] = agonist 10^-2 gm/100 ml + PDE Inhibitor IBMX 0.1 g/100 ml
# [12] = agonist 10^-3 gm/100 ml + PDE Inhibitor IBMX 0.1 g/100 ml
# [13] = agonist 10^-3 gm/100 ml, No PDE Inhibitor
# [14] = agonist 10^-1 gm/100 ml + PDE Inhibitor IBMX 0.1 g/100 ml
smiles,measurement,setting,value
NCC(O)c1ccc(O)cc1 (racemic) [(±)-p-octopamine],Vmax (% OCT),"[1]; Table 1, phenylethylamines, maximal activation as % of that by (±)-p-octopamine, N.A. = No Activity",81 ± 1 % OCT and 100 ± 1 % OCT
same,activation of adenylate cyclase in nerve cord,[2],potent activators of adenylate cyclase
same,effect of adding IBMX on antifeeding / pesticidal activity of the compound,[3],greatly increases the percent leaf remaining
Cn1c(=O)c2[nH]c(-c3ccccc3)nc2n(C)c1=O [8-phenyl-theophylline],inhibition of phosphodiesterase activity (maximal),[4],≤ 30%
same,"inhibition of feeding (maximal, even at a high dose)",[3]; FIG. 13,≤ 35%
same,relative antifeeding potency,"[3]; FIG. 13, dose sprayed on tomato leaves",shows the least activity
same,antifeeding activity of the compound by itself,[3],little antifeeding activity
same,activity as synergist of DDCDM,[3],much less activity as a synergist
"CNC=Nc1ccc(Cl)cc1C [DCDM, mono-demethylchlordimeform]",more potent than DDCDM against the octopamine receptor,[1],50%
same,Ka ratio,[1],6
same,Vmax,[1],76%
same,% Living Larvae,Manducca eggs; agonist 1 gm/100 ml + IBMX 0.1 g/100 ml,2%
same,% Living Larvae,Manducca eggs; [8],2%
same,% Living Larvae,Manducca eggs; agonist 10^-1 gm/100 ml + IBMX 0.1 g/100 ml,3%
same,% Living Larvae,Manducca eggs; [9],50%
same,% Living Larvae,Manducca eggs; agonist 10^-2 gm/100 ml + IBMX 0.1 g/100 ml,10%
same,% Living Larvae,Manducca eggs; [10],50%
same,% Leaf Remaining,[3]; [11],98%
same,% Leaf Remaining,[3]; [10],95%
same,% Leaf Remaining,[3]; [12],90%
same,% Leaf Remaining,[3]; [13],45%
same,% Leaf Remaining,[3]; agonist 10^-4 gm/100 ml + PDE Inhibitor IBMX 0.1 g/100 ml,75%
same,% Leaf Remaining,"[3]; agonist 10^-4 gm/100 ml, No PDE Inhibitor",< 5%
"Cc1cc(Cl)ccc1N=CN [DDCDM, di-demethylchlordimeform]",Ka ratio,[1],4
same,Vmax,[1],68%
same,activation of adenylate cyclase in nerve cord,[2],potent activators of adenylate cyclase
same,state of the leaf 72 hours after treatment,"[3]; 0.1% of each compound, FIG. 11",eaten substantial amounts of the leaf
same,% Leaf Remaining (increase over control),[3]; DDCDM 0.1 g/100 ml alone,0%
same,% Leaf Remaining,[3]; agonist 1 gm/100 ml + PDE Inhibitor IBMX 0.1 g/100 ml,100%
same,% Leaf Remaining,[3]; [8],100%
same,% Leaf Remaining,[3]; [14],98%
same,% Leaf Remaining,[3]; [9],30%
same,% Leaf Remaining,[3]; [11],85%
same,% Leaf Remaining,[3]; [10],7%
same,% Leaf Remaining,[3]; [12],20%
same,% Leaf Remaining,[3]; [13],5%
Cc1cc(Cl)ccc1N=C1NCCN1 [NC 7],Ka^oct /Ka^B ratio,"[1]; Table 2, clonidines, N.A. = no activity",9.8
same,activation of adenylate cyclase in nerve cord,[2],potent activators of adenylate cyclase
same,effect of adding IBMX on antifeeding / pesticidal activity of the compound,[3],substantial increases in the potency
same,% Leaf Remaining,[3]; agonist 0.3 (3 × 10^-1) gm/100 ml + PDE Inhibitor IBMX 0.1 g/100 ml,100%
same,% Leaf Remaining,"[3]; agonist 0.3 (3 × 10^-1) gm/100 ml, No PDE Inhibitor",80%
same,% Leaf Remaining,[3]; [14],95%
same,% Leaf Remaining,[3]; [9],55%
same,% Leaf Remaining,[3]; [11],85%
same,% Leaf Remaining,[3]; [10],30%
same,% Leaf Remaining,[3]; [12],48%
same,% Leaf Remaining,[3]; [13],23%
Cn1c(=O)c2c(ncn2C)n(C)c1=O [caffeine],phosphodiesterase inhibition,[5]; FIG. 6,active as phosphodiesterase inhibitors
same,activity as synergist of DDCDM,[3],much more powerful in inhibiting leaf feeding than caffeine alone or DDCDM alone
C=C[C@@]1(C)CC(=O)[C@]2(O)[C@@]3(C)[C@@H](O)CCC(C)(C)[C@@H]3[C@H](O)[C@H](OC(C)=O)[C@@]2(C)O1 [forskolin],Ka ratio,[6],0.22
same,Vmax,[6],100%
same,antifeeding activity of the compound by itself,[3],has antifeeding activity
same,effect of adding IBMX on antifeeding / pesticidal activity of the compound,[3],enhanced
same,Ka ratio,[7],0.20
same,Vmax,[7],about 100%
COc1ccc(C[C@H](N)C(=O)N[C@H]2[C@@H](O)[C@H](n3cnc4c(N(C)C)ncnc43)O[C@@H]2CO)cc1 [puromycin],Vmax (maximal inhibition of PDE activity),[5]; FIG. 7,greater than 70%
same,IC50,"[5]; FIG. 7, read-out: IC50 -inhibition",< 2 mM
same,activity as synergist of DDCDM,[3],able to synergize the pesticidal activity of DDCDM
